# Inconclusive results are not listed.
# Tested on: PBS pH 7.4 solubility, LC-UV/MS, 1 h shake
# Test: qHTS Assay for Agonists of the Relaxin Receptor RXFP1: PBS Solubility
# Conditions: active compounds read high
# Excerpt: The relaxin hormone is involved in the variety of biological functions in normal tissues and diseases. The role of relaxin is well-established in female reproduction and parturition, mammary gland and endometrial development, maintenance of myometrial quiescence during pregnancy. Relaxin signaling through its G protein-coupled receptor (GPCR) RXFP1 results in ECM remodeling through regulation of collagen deposition, cell invasiveness, proliferation and overall tissue homeostasis. […] Recombinant human relaxin (rhRlx) is currently being tested in clinical trials as a protective agent in congestive heart failure, in treating severe preeclampsia, and as an anti-fibrotic agent in systemic sclerosis. The probe and analogs were tested to assess their PBS solubility in this assay. NIH Chemical Genomics Center [NCGC] NIH Molecular Libraries Probe Production Centers Network [MLPCN] MLPCN Grant: R03 MH085705 Assay Submitter (PI): Alexander Agoulnik
# 1. 8ul of reference and test compound stock solution were added to 392ul 100mM phosphate buffer (pH 7.4) 2. Sample tubes were shaken for 1 hr (1000 rpm) at room temperature 3. Samples were centrifuged (10 min at 12000 rpm) to precipitate un-dissolved particles 4. Supernatants were transferred to new tubes 5. Concentration of the supernatant was determined by LC-UV or LC-MS/MS
row,Structure (SMILES),solubility [µM]
1,COc1ccccc1C(=O)Nc1ccccc1C(=O)Nc1cccc(SC(F)(F)F)c1,2.9
2,CC(C)Oc1ccccc1C(=O)Nc1ccccc1C(=O)Nc1cccc(S(=O)(=O)C(F)(F)F)c1,7
3,CCOc1ccccc1C(=O)Nc1ccccc1C(=O)Nc1cccc(C(F)(F)F)c1,1.7

# Next, values leading:
row,solubility [µM],Structure (SMILES)
1,5.3,CCCCOc1ccccc1C(=O)Nc1ccccc1C(=O)Nc1cccc(S(=O)(=O)C(F)(F)F)c1
2,1.1,CCOc1ccccc1C(=O)Nc1ccccc1C(=O)Nc1cccc(S(=O)(=O)C(F)(F)F)c1
